Measured values as given in PMC9031226, “Preclinical Therapeutic Assessment of a New Chemotherapeutics [Dichloro(4,4’-Bis(2,2,3,3-Tetrafluoropropoxy) Methyl)-2,2’-Bipryridine) Platinum] in an Orthotopic Patient-Derived Xenograft Model of Triple-Negative Breast Cancers” (Pharmaceutics, 2022).

Legend:
[1] = PDX model: body and organ weight, CBC and blood biochemistry; format: in vivo; conditions: NSG mice
Text: The procedures for the establishment of breast cancer-bearing xenograft models were modified from previous publications and approved by the Taipei Medical University (TMU) Institutional Animal Care and Use Committee (IACUC No. LAC- 2021-0546) and the Joint Institutional Review Board of Taipei Medical University (N201812005). Overall, 4- to 6-week-old NOD.Cg-PrkdcscidIl2rgtm1Wjl/SzJ (NSG) female mice purchased from BioLASCO Taiwan Co., Ltd. (Taipei, Taiwan) were housed in specific pathogen-free rooms with ad libitum feeding and 12 h light–dark cycle. Patient-derived TNBC tumors were microscopically considered for a hypervascular background and frequent mitosis features, and triple-negative results for estrogen receptor, progesterone receptor and human epidermal growth factor receptor 2 (HER2). After a week of acclimatization, patient-derived TNBC tumors dissected into 3 × 3 × 3 mm^3 were implanted using puncture needle in fat pads between the third and fourth mammary glands for each mouse. […] Tumor growth curves were generated by measuring tumor diameters and then calculating based on the same equation described above. Finally, the mice were sacrificed on day 23 after the first dose of treatments. Plasma, tumors and major organs (heart, liver, kidney, spleen and lung) were collected for toxicity assessment and metastasis evaluation. Whole blood harvested from sacrificed animals was collected in EDTA-containing or heparin-containing tubes for CBC and biochemical analysis. For biochemical analysis, whole blood was centrifuged under 2000× g for 5 min to separate plasma from blood cells and then plasma was kept and stored in a −20 °C fridge until further analysis. Concentrations of albumin, total protein, aspartate aminotransferase (AST), alanine aminotransferase (ALT) and creatinine (CREA) in plasma, numbers of red blood cells (RBC), platelets (PLT), white blood cells (WBC) and hemoglobin (HGB) concentration in EDTA-anticoagulated whole blood were determined by medical laboratory scientists in Taipei Medical University Hospital (Taipei, Taiwan).

[2] = tested on: MDA-MB-231 cells; test: Apoptosis detection (annexin V/PI, flow cytometry); format: cell-based, human; conditions: MDA-MB-231, 15 h
Experimental: In total, 3 × 10^5 MDA-MB-231 cells were first plated and cultured in a 6-well plate for 24 h and then exposed to medium, TFBPC- or CDDP-containing medium, and incubated in the dark for another 15 h, followed by apoptotic assessment using FITC-annexin V (AV) and propidium iodide (PI) double staining cell solution (Thermo Fisher Scientific Inc., Waltham, MA, USA) for 30 min. To assess the AV-Phosphatidylserine (excitation/emission maxima of 490/525 nm) and PI-DNA (excitation/emission maxima of 535/617 nm) binding, fluorescence intensity was analyzed and recorded using flow cytometer. Scatters in a two-parameter dot plot were gated into four quadrants. Proportions in the lower right (LR) and upper right (UR) quadrants were represented as the early stage and late stage in apoptotic process.

[3] = CDX model: body and organ weight, CBC and blood biochemistry; format: in vivo; conditions: NSG mice
Experimental: The procedures for the establishment of breast cancer-bearing xenograft models were modified from a previous publication and approved by the Taipei Medical University (TMU) Institutional Animal Care and Use Committee (IACUC No. LAC-2020-0175). Overall, 4- to 6-week-old NOD.Cg-PrkdcscidIl2rgtm1Wjl/SzJ (NSG) female mice purchased from National Laboratory Animal Center (Taipei, Taiwan) were housed in specific pathogen-free rooms with ad libitum feeding and 12 h light–dark cycle. After a week of acclimatization, 2 × 10^6 MDA-MB-231 cells suspended in 1:1 ratio of phosphate-buffered saline plus Matrigel® Matrix (Cat. 356237; Corning Inc., New York, NY, USA) were subcutaneously injected on the right flank of each mouse. […] To monitor tumor growth in the models, tumor diameter was measured using an electronic caliper and values were applied on the equation: width^2 × length × 0.52 to estimate their tumor volume. All mice were sacrificed on day 28 after treatment. Plasma, tumors and major organs (heart, liver, kidney, spleen and lung) were collected for toxicity assessment and metastasis evaluation. Whole blood harvested from sacrificed animals was collected in EDTA-containing or heparin-containing tubes for CBC and biochemical analysis. For biochemical analysis, whole blood was centrifuged under 2000× g for 5 min to separate plasma from blood cells and then plasma was kept and stored in a −20 °C fridge until further analysis. Concentrations of albumin, total protein, aspartate aminotransferase (AST), alanine aminotransferase (ALT) and creatinine (CREA) in plasma, numbers of red blood cells (RBC), platelets (PLT), white blood cells (WBC) and hemoglobin (HGB) concentration in EDTA-anticoagulated whole blood were determined by medical laboratory scientists in Taipei Medical University Hospital (Taipei, Taiwan).

[4] = 5 mg/kg i.v. weekly x4, day 23, reference interval 0.2–0.5
[5] = 5 mg/kg i.v. weekly x4, day 23, reference interval 13–39
[6] = 5 mg/kg i.v. weekly x4, day 23, reference interval 63–227
[7] = 5 mg/kg i.v. weekly x4, day 23, reference interval 853–1951
[8] = 5 mg/kg i.v. weekly x4, day of sacrifice (day 23)
[9] = 5 mg/kg i.p. weekly x4, day 28, reference interval 0.2–0.5
[10] = 5 mg/kg i.p. weekly x4, day 28, reference interval 4–10.9
[11] = 5 mg/kg i.p. weekly x4, day 28, reference interval 7.75–9.61
[12] = 5 mg/kg i.p. weekly x4, day 28, reference interval 13–39
[13] = 5 mg/kg i.p. weekly x4, day 28, reference interval 63–227
[14] = 5 mg/kg i.p. weekly x4, day 28, reference interval 853–1951
[15] = 5 mg/kg i.p. weekly x4, day of sacrifice (day 28)
[16] = 2.11 mg/kg i.v. weekly x4, day 23
[17] = 2.11 mg/kg i.p. weekly x4, day 28

With FC(F)C(F)(F)COCc1ccnc(-c2cc(COCC(F)(F)C(F)F)ccn2)c1.[Cl][Pt][Cl] [TFBPC] the Kidney ([1]; 5 mg/kg i.v. weekly x4, day 23) was 0.36 ± 0.02 g, the Liver ([1]; 5 mg/kg i.v. weekly x4, day 23) was 1.58 ± 0.11 g and the Lung ([1]; 5 mg/kg i.v. weekly x4, day 23) was 0.24 ± 0.02 g. It also gave a Spleen ([1]; 5 mg/kg i.v. weekly x4, day 23) of 0.30 ± 0.05 g, a CREA [1, 4] of 0.10 ± 0.12 mg/dL and an Albumin ([1]; 5 mg/kg i.v. weekly x4, day 23, reference interval 3.0–3.9) of 2.93 ± 0.40 g/dL. The Total protein ([1]; 5 mg/kg i.v. weekly x4, day 23, reference interval 4.5–5.5) was 4.6 ± 0.32 g/dL, the RBC ([1]; 5 mg/kg i.v. weekly x4, day 23, reference interval 7.75–9.61) was 6.97 ± 0.58 10^6/µL and the HGB ([1]; 5 mg/kg i.v. weekly x4, day 23, reference interval 12.20–13.90) was 11.8 ± 0.56 g/dL. The ALT [1, 5] was 14.75 ± 4.50 U/L, the AST [1, 6] was 131.75 ± 31.70 U/L and the PLT [1, 7] was 872.75 ± 81.04 10^3/µL. The Body weight [1, 8] was 25.72 ± 1.22 g, the “induction of apoptosis (annexin V)” value [2] was “caused cells to undergo an apoptotic fate” and the Heart ([3]; 5 mg/kg i.p. weekly x4, day 28) was 0.14 ± 0.04 g. For the same compound, the Kidney ([3]; 5 mg/kg i.p. weekly x4, day 28) was 0.31 ± 0.02 g, the Liver ([3]; 5 mg/kg i.p. weekly x4, day 28) was 1.04 ± 0.08 g and the Lung ([3]; 5 mg/kg i.p. weekly x4, day 28) was 0.23 ± 0.04 g. It also gave a Spleen ([3]; 5 mg/kg i.p. weekly x4, day 28) of 0.03 ± 0.00 g, a CREA [3, 9] of 0.20 ± 0.00 mg/dL and an Albumin ([3]; 5 mg/kg i.p. weekly x4, day 28, reference interval 3.0–3.9) of 3.20 ± 0.29 g/dL. For the same compound, the WBC [3, 10] was 5.70 ± 1.54 10^3/µL, the Total protein ([3]; 5 mg/kg i.p. weekly x4, day 28, reference interval 4.5–5.5) was 4.98 ± 0.17 g/dL and the RBC [3, 11] was 9.85 ± 0.30 10^6/µL. It also gave an HGB ([3]; 5 mg/kg i.p. weekly x4, day 28, reference interval 12.20–13.90) of 14.9 ± 0.53 g/dL, an ALT [3, 12] of 38.75 ± 7.09 U/L and an AST [3, 13] of 190.0 ± 65.17 U/L. For the same compound, the PLT [3, 14] was 975 ± 205.8 10^3/µL and the Body weight [3, 15] was 23.62 ± 1.56 g.

In the case of N.N.[Cl][Pt][Cl] [CDDP, Cis-diamineplatinum(II) dichloride], the Kidney [1, 16] is reported as 0.33 ± 0.03 g, the Liver [1, 16] is reported as 1.51 ± 0.12 g and the Lung [1, 16] is reported as 0.23 ± 0.01 g. For the same compound, the Spleen [1, 16] was 0.22 ± 0.07 g, the CREA ([1]; 2.11 mg/kg i.v. weekly x4, day 23, reference interval 0.2–0.5) was 0.20 ± 0.00 mg/dL and the WBC ([1]; 2.11 mg/kg i.v. weekly x4, day 23, reference interval 4–10.9) was 6.09 ± 1.32 * 10^3/µL. For the same compound, the RBC ([1]; 2.11 mg/kg i.v. weekly x4, day 23, reference interval 7.75–9.61) was 7.41 ± 0.51 10^6/µL, the ALT ([1]; 2.11 mg/kg i.v. weekly x4, day 23, reference interval 13–39) was 14.00 ± 4.90 U/L and the AST ([1]; 2.11 mg/kg i.v. weekly x4, day 23, reference interval 63–227) was 207.00 ± 101.18 U/L. The PLT ([1]; 2.11 mg/kg i.v. weekly x4, day 23, reference interval 853–1951) was 946.75 ± 150.28 10^3/µL, the Body weight ([1]; 2.11 mg/kg i.v. weekly x4, day of sacrifice (day 23)) was 24.06 ± 2.18 g and the Heart ([1]; 5 mg/kg i.v. weekly x4, day 23) was 0.11 ± 0.02 g. The Kidney ([1]; 5 mg/kg i.v. weekly x4, day 23) was 0.35 ± 0.04 g, the Liver ([1]; 5 mg/kg i.v. weekly x4, day 23) was 1.63 ± 0.22 g and the Lung ([1]; 5 mg/kg i.v. weekly x4, day 23) was 0.23 ± 0.03 g. It also gave a Spleen ([1]; 5 mg/kg i.v. weekly x4, day 23) of 0.17 ± 0.04 g, a CREA [1, 4] of 0.15 ± 0.10 mg/dL and an ALT [1, 5] of 13.00 ± 3.27 U/L. For the same compound, the AST [1, 6] was 137.00 ± 34.79 U/L, the PLT [1, 7] was 877.00 ± 170.99 10^3/µL and the Body weight [1, 8] was 25.48 ± 0.98 g. For the same compound, the “induction of apoptosis (annexin V)” value [2] was “failed to induce MDA-MB-231 cells to undergo apoptosis”, the Heart [3, 17] was 0.14 ± 0.04 g and the Kidney [3, 17] was 0.31 ± 0.02 g. It also gave a Liver [3, 17] of 1.04 ± 0.08 g, a Lung [3, 17] of 0.23 ± 0.04 g and a Spleen [3, 17] of 0.03 ± 0.00 g. The CREA ([3]; 2.11 mg/kg i.p. weekly x4, day 28, reference interval 0.2–0.5) was 0.20 ± 0.00 mg/dL, the WBC ([3]; 2.11 mg/kg i.p. weekly x4, day 28, reference interval 4–10.9) was 3.48 ± 0.13 ^§ 10^3/µL and the RBC ([3]; 2.11 mg/kg i.p. weekly x4, day 28, reference interval 7.75–9.61) was 9.25 ± 0.33 10^6/µL. The ALT ([3]; 2.11 mg/kg i.p. weekly x4, day 28, reference interval 13–39) was 34.25 ± 9.18 U/L, the AST ([3]; 2.11 mg/kg i.p. weekly x4, day 28, reference interval 63–227) was 120.3 ± 20.82 U/L and the PLT ([3]; 2.11 mg/kg i.p. weekly x4, day 28, reference interval 853–1951) was 867.3 ± 97.6 10^3/µL. For the same compound, the Body weight ([3]; 2.11 mg/kg i.p. weekly x4, day of sacrifice (day 28)) was 24.08 ± 2.89 g, the Heart ([3]; 5 mg/kg i.p. weekly x4, day 28) was 0.13 ± 0.01 g and the Kidney ([3]; 5 mg/kg i.p. weekly x4, day 28) was 0.29 ± 0.02 g. For the same compound, the Liver ([3]; 5 mg/kg i.p. weekly x4, day 28) was 0.98 ± 0.10 g, the Lung ([3]; 5 mg/kg i.p. weekly x4, day 28) was 0.26 ± 0.13 g and the Spleen ([3]; 5 mg/kg i.p. weekly x4, day 28) was 0.13 ± 0.18 g. For the same compound, the CREA [3, 9] was 0.23 ± 0.05 mg/dL, the WBC [3, 10] was 6.33 ± 1.59 10^3/µL and the RBC [3, 11] was 9.18 ± 0.46 10^6/µL. The ALT [3, 12] was 29.00 ± 3.46 U/L, the AST [3, 13] was 172.3 ± 44.28 U/L and the PLT [3, 14] was 927.80 ± 223.4 10^3/µL. It also gave a Body weight [3, 15] of 22.20 ± 2.12 g.
